PMC9558053, “Development of a novel high-throughput screen for the identification of new inhibitors of protein S-acylation” (The Journal of Biological Chemistry, 2022)

Biological target: T1, human zDHHC3 (Homo sapiens, UniProt Q9NYG2)
T1 construct: expressed in transfected cells; host or cells: HEK293T
T1 sequence (Q9NYG2 1-299): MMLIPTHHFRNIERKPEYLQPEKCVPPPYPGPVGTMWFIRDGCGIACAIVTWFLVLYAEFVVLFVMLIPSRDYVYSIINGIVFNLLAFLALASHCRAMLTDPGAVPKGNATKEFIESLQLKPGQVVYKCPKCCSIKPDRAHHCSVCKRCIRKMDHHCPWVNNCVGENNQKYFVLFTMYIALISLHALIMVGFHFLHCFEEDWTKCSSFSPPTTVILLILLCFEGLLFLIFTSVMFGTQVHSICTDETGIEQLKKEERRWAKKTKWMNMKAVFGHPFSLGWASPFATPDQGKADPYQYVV
Test: GFP-SNAP25b S-acylation in HEK293T cells co-expressing zDHHC3
Type: cell-based
Details: in cellulo HEK293T, compound 25 μM; for inhibition at 25 µM: HEK-293T, read-out: SNAP25 S-acylation inhibition (%), zDHHC3
Protocol: We next investigated whether the identified compounds were effective at inhibiting zDHHC enzyme isoforms other than zDHHC2 (Fig. 6 and Table 1). […] We therefore treated cells coexpressing GFP-SNAP25 and each of these zDHHC enzymes with 25 μM of TTZ-1 and TTZ-2 and studied the subsequent effect on SNAP25 S-acylation. […] Importantly, the level of enzyme expression was unaffected by the compounds. […] As any major differences in the expression levels of the different enzymes could in theory contribute to the apparent differential effects of TTZ-1 and TTZ-2, we directly compared the expression of zDHHC2, zDHHC3, zDHHC7, zDHHC15, and zDHHC17 when transfected in HEK293T cells together with GFP-SNAP25.
Figure 6 Activity of TTZ-1 and TTZ-2 against SNAP25 S-acylation by human zDHHC2, zDHHC3, zDHHC7, zDHHC15, and zDHHC17 expressed in mammalian cells.A–E, HEK293T cells were transfected with a plasmid encoding GFP-SNAP25b together with either a control plasmid pEF-BOS-HA (pEF) or a plasmid encoding either HA-tagged human zDHHC2 (zD2) (A), zDHHC3 (zD3) (B), zDHHC7 (zD7) (C), zDHHC15 (zD15) (D), or zDHHC17 (zD17) (E) for 24 h. Cells were then preincubated for 4 h with TTZ-1 or TTZ-2 (25 μM final) or DMSO control before metabolic labeling with 100 μM C16:0-azide for 4 h. Cells were lysed, and proteins having incorporated C16:0-azide were labeled by click chemistry with an alkyne-IR800 dye. Protein samples were then resolved by SDS-PAGE and transferred to nitrocellulose membranes that were first stained with an infrared-680 total protein stain. Membranes were then destained and probed with an anti-HA antibody (IR680), followed by an anti-GFP antibody (IR680). Representative images are shown, and panels are presented in the following order (from top to bottom): click chemistry signal (Click [IR800]), GFP and HA immunoblots (IR680), and Total Protein Stain (IR680). […] Three independent experiments were performed either in duplicate or in triplicate, and the quantification data were gathered on the graphs below each set of membranes. […]

CCCCCCCOc1ccc(C(=O)Nc2cccc3c2OC(c2nnn[nH]2)CN3)cc1 (stereo not drawn) [TTZ-1, N-(2-(1H-Tetrazol-5-yl)-3,4-dihydro-2H-benzo[b][1,4]oxazin-8-yl)-4-(heptyloxy)benzamide]
inhibition at 25 µM: 9 ± 4% | SNAP25 S-acylation inhibition (%), zDHHC3: no significant effect

O=C(Nc1cccc2c1OC(c1nnn[nH]1)CN2)c1ccc(OCCCCc2ccccc2)cc1 (stereo not drawn) [TTZ-2, N-(2-(1H-Tetrazol-5-yl)-3,4-dihydro-2H-benzo[b][1,4]oxazin-8-yl)-4-(4-phenylbutoxy)benzamide]
inhibition at 25 µM: 19 ± 3%
